Patent US9994587B2, “HIV protease inhibitors” (priority 2014, dated 2018)
pIC50: −log10 of the molar value.

Molecular target: T1, wildtype HIV-1 protease (Human immunodeficiency virus type 1 group M subtype B, UniProt P04585)
T1 construct: preincubated with the HIV-1 protease (wild type) enzyme in assay buffer; made in house; host or cells: Escherichia coli
Experiment: Assay for inhibition of microbial expressed HIV protease (Pepcleav)
Type: biochemical
Conditions: wild type HIV-1 protease 20 pM, peptide substrate 400 micromolar, pH 5.5; mean of at least two independent experiments
Description: Assay for Inhibition of Microbial Expressed HIV Protease (“Pepcleav”)
Studies of the inhibition of the wildtype HIV-1 protease (which was expressed in Escherichia coli) were carried out with a peptide substrate [Val-Ser-Gln-Asn-(βnaphtyl)Ala-Pro-Ile-Val (SEQ ID NO 1)]. The inhibitor was first preincubated with the HIV-1 protease (wild type) enzyme in assay buffer (50 mM sodium acetate, pH 5.5, 100 mM NaCl, and 0.1% BSA) for 30 minutes at room temperature. Substrate was added to 400 micromolar in a total volume of 20 microliters containing 20 picomolar HIV-1 protease (final) and the reaction is incubated for 1 hour at 30° C. The reaction was quenched with the addition of formic acid and indinavir to 0.012% and 150 nM final concentrations, respectively. Product formation was determined after separation of product and substrate on a Zorbax Eclipse XDB-C18 column connected to an API 4000 mass spectrometer (Applied Biosystems) with multiple reaction monitoring (transitions were 644.5/428.9 and 615.4/422.2 (M1/M3) for product and indinavir respectively). The extent of inhibition of the reaction was determined from the peak area of the products.

Question: How did the pIC50 turn out when COC(=O)N[C@H](C(=O)Nc1ccccc1CC[C@@H]1CNC[C@@H](CSc2cccc(C#N)c2)O1)C(c1ccccc1)c1ccccc1 [Example 24, methyl N-[(1S)-1-benzhydryl-2-[[2-[2-[(2R,6S)-6-[(3-cyanophenyl)sulfanylmethyl]morpholin-2-yl]ethyl]phenyl]amino]-2-oxo-ethyl]carbamate] was run?
Answer: 8.68

Question: With COC(=O)N[C@H](C(=O)Nc1ccccc1CC[C@@H]1CNC[C@@H](CSc2ccc(Cl)cc2Cl)O1)C(c1ccccc1)c1ccccc1 [Example 25, methyl N-[(1S)-1-benzhydryl-2-[[2-[2-[(2R,6S)-6-[(2,4-dichlorophenyl)sulfanylmethyl]morpholin-2-yl]ethyl]phenyl]amino]-2-oxo-ethyl]carbamate] as the molecule, how does the pIC50 read?
Answer: 8.82

Question: COC(=O)N[C@H](C(=O)Nc1ccccc1CC[C@@H]1CNC[C@@H](CSc2ccc(Cl)cc2C)O1)C(c1ccccc1)c1ccccc1 [Example 26, methyl N-[(1S)-1-benzhydryl-2-[[2-[2-[(2R,6S)-6-[(4-chloro-2-methyl-phenyl)sulfanylmethyl]morpholin-2-yl]ethyl]phenyl]amino]-2-oxo-ethyl]carbamate] was tested. Which pIC50 did it give?
Answer: 8.89

Question: With COC(=O)N[C@H](C(=O)Nc1ccccc1CC[C@@H]1CNC[C@@H](CSc2ccc(Br)cc2F)O1)C(c1ccccc1)c1ccccc1 [Example 27, methyl N-[(1S)-1-benzhydryl-2-[[2-[2-[(2R,6S)-6-[(4-bromo-2-fluoro-phenyl)sulfanylmethyl]morpholin-2-yl]ethyl]phenyl]amino]-2-oxo-ethyl]carbamate] as the molecule, how does the pIC50 read?
Answer: 9.28

Question: With COC(=O)N[C@H](C(=O)Nc1ccccc1CC[C@@H]1CNC[C@@H](COc2ccc(S(C)(=O)=O)cc2C)O1)C(c1ccccc1)c1ccccc1 [Example 28, methyl N-[(1S)-1-benzhydryl-2-[[2-[2-[(2R,6S)-6-[(2-methyl-4-methylsulfonyl-phenoxy)methyl]morpholin-2-yl]ethyl]phenyl]amino]-2-oxo-ethyl]carbamate] as the molecule, how does the pIC50 read?
Answer: 7.74

Question: COC(=O)N[C@H](C(=O)Nc1ccccc1CC[C@@H]1CNC[C@@H](COc2ccc(C#N)cc2C)O1)C(c1ccccc1)c1ccccc1 [Example 29, methyl N-[(1S)-1-benzhydryl-2-[[2-[2-[(2R,6S)-6-[(4-cyano-2-methyl-phenoxy)methyl]morpholin-2-yl]ethyl]phenyl]amino]-2-oxo-ethyl]carbamate] was tested. Which pIC50 did it give?
Answer: 7.77

Question: COC(=O)N[C@H](C(=O)Nc1ccccc1CC[C@@H]1CNC[C@@H](COc2cccc3[nH]ccc23)O1)C(c1ccccc1)c1ccccc1 [Example 30, methyl N-[(1S)-1-benzhydryl-2-[[2-[2-[(2R,6S)-6-(1H-indol-4-yloxymethyl)morpholin-2-yl]ethyl]phenyl]amino]-2-oxo-ethyl]carbamate] was tested. Which pIC50 did it give?
Answer: 6.89

Question: How did the pIC50 turn out when COC(=O)N[C@H](C(=O)Nc1ccccc1CC[C@@H]1CNC[C@@H](COc2cccc3c2CCC3)O1)C(c1ccccc1)c1ccccc1 [Example 31, methyl N-[(1S)-1-benzhydryl-2-[[2-[2-[(2R,6S)-6-(indan-4-yloxymethyl)morpholin-2-yl]ethyl]phenyl]amino]-2-oxo-ethyl]carbamate] was run?
Answer: 7.44

Question: With COC(=O)N[C@H](C(=O)Nc1ccccc1CC[C@@H]1CNC[C@@H](CSc2nnc(Cc3csc(C)n3)o2)O1)C(c1ccccc1)c1ccccc1 [Example 32, methyl N-[(1S)-1-benzhydryl-2-[[2-[2-[(2R,6S)-6-[[5-[(2-methylthiazol-4-yl)methyl]-1,3,4-oxadiazol-2-yl]sulfanylmethyl]morpholin-2-yl]ethyl]phenyl]amino]-2-oxo-ethyl]carbamate] as the molecule, how does the pIC50 read?
Answer: 8.10

Question: COC(=O)N[C@H](C(=O)Nc1ccccc1CC[C@@H]1CNC[C@@H](CSc2nnc(Cn3nccc3C)o2)O1)C(c1ccccc1)c1ccccc1 [Example 33, methyl N-[(1S)-1-benzhydryl-2-[[2-[2-[(2R,6S)-6-[[5-[(5-methylpyrazol-1-yl)methyl]-1,3,4-oxadiazol-2-yl]sulfanylmethyl]morpholin-2-yl]ethyl]phenyl]amino]-2-oxo-ethyl]carbamate] was tested. Which pIC50 did it give?
Answer: 9.17
